Entries after “also recorded” stand apart in the source; their conditions may differ. Where two headings read alike, the source gives them in different places. Blank lines part the entries; values can stand above or below the compound they belong to.
Key:
SAB [1] = experiment: SAB levels in response to chronic cytotoxic processes; conditions: treatment with CCCP
[2] = patients; cited from earlier work
HeLa cells [3] = experiment: Calculation of paclitaxel and cisplatin IC50s by TO-PRO-3 staining; assay type: cell-based, human
Protocol: LY294002 was solubilized in dimethylformamide (DMF). HeLa cells were exposed to the indicated doses of LY294002 over 24 h for acute studies. […] For sub-chronic exposure, cells were dosed with 2 μM LY294002 for seven days. The media was exchanged every 48 h to sustain the drug concentrations.
Briefly, 10,000 cells were plated in a black-walled optically clear bottom 96-well plate. […] The cells were fixed in 4% paraformaldehyde for 25 min at room temperature, and stained with TO-PRO-3 (1 μM) in PBST (150 mM NaCl, 8 mM Na2HPO4, 3 mM KCl, 2 mM KH2PO4, pH 7.4, 0.05% Tween 20). The cells were then washed five times in PBST while gently rocking for 5 min at room temperature. Samples were protected from light during incubations. Assays were visualized on the Li-Cor Odyssey CLx imager, and IC50s were calculated using Graphpad® Prism.
Transient transfections with pLOC plasmids for expression and pLKO.1 plasmids for silencing (Open Biosystems) were used to modulate Sab levels. HeLa cells were plated at a density of 2×10^5 cells per 35-mm dish the day before transfections. Plasmids were mixed with FugeneHD (Promega) at a ratio of 3:1 according to the manufacturer's protocol. Protein levels were monitored by western blot analysis.
(§1) Studies using LY294002 have employed high doses (often >10 μM). […] For acute treatments, cells were dosed with 0.1% DMF or increasing concentrations of LY294002 (2 μM, 10 μM, and 50 μM) for 24 h.

[4] = tested on: SK-OV-3 ovarian cancer cells; experiment: Paclitaxel sensitivity of SK-OV-3 cells over-expressing SH3BP5; assay type: cell-based, human; conditions: paclitaxel following 48 hours of transfection
SAB [5] = experiment: SAB levels in rats injected with 6-OHDA (ventral midbrain western blot, blood cells); assay type: in vivo, rat
Source text: Parkinson's disease-like state was induced in animals by localizing treatment to the ventral midbrains of rats using 6-hydroxydopamine. Blood was obtained from 6-hydroxydopamine treated rats and the control rats. Levels of SAB protein or RNA encoding SAB proteins in platelets and other blood cells were higher in 6-hydroxydopamine treated rats compared to control rats.
Further, disruption of SAB-mediated signaling using a small peptide to block kinase binding to SAB prevented 6-OHDA-induced motor deficiencies in rats (FIG. 8).

Sab expression [6] = experiment: In-cell western for SAB expression in SH-SY5Y cells treated with 6-OHDA; assay type: cell-based, human; conditions: increasing sub-chronic doses of 6-OHDA (0-100.00 nM, 24 hours)
Protocol: Cells or tissue samples are placed in a fluorescent compatible plate (for example, a 96-well plate) and the sample can be fixed to the plate. The sample is then permeabilized using detergent to disrupt the plasma membrane. Primary antibodies to detect SAB (Abnova, Inc.) are then incubated with the samples. Following a brief wash, the cells are incubated with a fluorescently labeled secondary antibody used to recognize the primary antibody. The samples are washed again. The plate is then scanned on a Li-Cor Bioscience Odyssey CLx near-infrared scanner to measure the fluorescent signal from the sample. A high fluorescent signaling indicates a higher level of SAB protein, while a low fluorescence signal indicates a lower level of SAB protein.
An in-cell western allows detection of protein levels in cells cultured in a 96-well black walled plate. For this technique, the cells are fixed with paraformaldehyde following seeding and growth to 80% confluency. […] Using the LiCor Odyssey CLx near infrared imager, the relative amounts of protein in each well are quantified. […]
An example of in-cell western technology for the detection of SAB is shown in (FIG. 3). […] In a model of cytotoxicity, SH-SY5Y cells treated with increasing sub-chronic doses of the neurotoxin, 6-hydroxydopamine (6-OHDA) were seeded in a 96-well plate and monitored for SAB expression.

JNK = JNK activation and mitochondrial JNK in LY294002-treated HeLa cells by western blot; assay type: cell-based, human
Protocol: (§2) Following 72 h of transfection, cells were lysed and proteins were harvested. Protein concentration was determined using the by Pierce BCA Assay kit. Proteins were resolved by SDS-PAGE, and transferred onto PVDF membranes. Membranes were incubated with Li-Cor Biosciences Odyssey Blocking for at least 1 h at room temperature. The membranes were then incubated with primary antibodies specific for Sab, JNK, p44/42 MAPK (Erk1/2), p38, GAPDH, Actin, Calnexin, TOM20, or α-tubulin at 1:1000 dilutions in blocking buffer. Membranes were washed three times for 5 min in PBST. Membranes were incubated with secondary antibodies in blocking buffer at 1:20,000 for fluorescently conjugated secondary antibodies. Membranes were again washed three times for 5 min in PBST. Western blots were developed using the Odyssey CLx imager (Li-Cor Biosciences).
Mitochondria were isolated from HeLa cells. […]
(§3) Western blot images were acquired using the LI-COR Odyssey CLx imager. Fluorescence signals were acquired for the bands of interest. […]
To determine if LY294002 impacted the concentration of JNK signaling on mitochondria, the expression of Sab was measured in HeLa cells in both acute and sub-chronic administration of LY294002. […] As time increased, there was a noticeable increase (˜8-fold) in Sab expression in the LY294002 compared to DMF-treated and untreated cells (FIG. 17B and quantified in FIG. 18B). […]

HeLa cells [7] = experiment: LY294002 toxicity / viability of HeLa cells; assay type: cell-based, human
Protocol: LY294002 was solubilized in dimethylformamide (DMF). HeLa cells were exposed to the indicated doses of LY294002 over 24 h for acute studies. […] […] The media was exchanged every 48 h to sustain the drug concentrations.
as §1

Sab expression [8] = experiment: Sab expression in LY294002-treated HeLa cells by quantitative western blot; assay type: cell-based, human
Protocol: LY294002 was solubilized in dimethylformamide (DMF). HeLa cells were exposed to the indicated doses of LY294002 over 24 h for acute studies. The 24-h IC10 for LY294002 in HeLa cells to be ˜2 μM. For sub-chronic exposure, cells were dosed with 2 μM LY294002 for seven days. The media was exchanged every 48 h to sustain the drug concentrations.
as §2, with “Western blots were developed using the Odyssey CLx imager (Li-Cor Biosciences).” left out
as §3
HeLa cell mitochondria were primed using a sub-chronic (2 μM dose) of LY294002 for seven days. The concentration of SAB was monitored using quantitative western blot analysis on protein lysates taken on days 0, 3, and 7 of LY294002 treatment.
To determine if LY294002 impacted the concentration of JNK signaling on mitochondria, the expression of Sab was measured in HeLa cells in both acute and sub-chronic administration of LY294002. […] As time increased, there was a noticeable increase (˜8-fold) in Sab expression in the LY294002 compared to DMF-treated and untreated cells (FIG. 17B and quantified in FIG. 18B). […] To determine if mitochondrial translocation of JNK occurred during the sub-chronic treatment, mitochondrial isolates were analyzed for the presence of JNK on days 3 and 4 (the days of maximal JNK activation). […]

Structure (SMILES): N#CC(C#N)=NNc1cccc(Cl)c1 [CCCP, carbonylcyanide m-chlorophenylhydrazone]
SAB levels (SAB [1]): increased

Structure (SMILES): Sc1ncnc2nc[nH]c12 [6-mercaptopurine]
Doses that can induce hepatotoxicity [2]: greater than 2 mg/kg

Structure (SMILES): N.N.[Cl][Pt][Cl] [Cisplatin]
IC50 (HeLa cells [3]; read-out: Cisplatin IC50, Sab shRNA#2 + Sab:shRNA^r (rescue)): 0.0073 µM | IC50 (HeLa cells [3]; read-out: Cisplatin IC50, gene silencing, Sab shRNA#1): 0.0121 µM | IC50 (HeLa cells [3]; read-out: Cisplatin IC50, gene silencing, Sab shRNA#2): 0.0188 µM | IC50 (HeLa cells [3]; read-out: Cisplatin IC50, gene silencing, control shRNA): 0.0039 µM | IC50 (HeLa cells [3]; read-out: Cisplatin IC50, sub-chronic (7 days) 2 μM LY294002): 0.00054 µM | IC50 (HeLa cells [3]; read-out: Cisplatin IC50, untreated): 0.0032 µM

IC50 (HeLa cells [3]; Homo sapiens, HeLa, 24 h, acute (24 h) 2 μM LY294002, read-out: Paclitaxel IC50): 14.1 µM | IC50 (HeLa cells [3]; Homo sapiens, HeLa, 24 h, acute (24 h) 10 μM LY294002, read-out: Paclitaxel IC50): 6.3 µM | IC50 (HeLa cells [3]; Homo sapiens, HeLa, 24 h, acute (24 h) 50 μM LY294002, read-out: Paclitaxel IC50): 1.9 µM | IC50 (HeLa cells [3]; Homo sapiens, HeLa, 24 h, acute (24 h) 50 μM LY294002, read-out: Paclitaxel IC50 (as worded in text)): 1.9 µM | IC50 (HeLa cells [3]; Homo sapiens, HeLa, 24 h, acute (24 h) 0.1% DMF, read-out: Paclitaxel IC50): 13.6 µM | IC50 (HeLa cells [3]; Homo sapiens, HeLa, 168 h, sub-chronic (7 days) 2 μM LY294002, read-out: Paclitaxel IC50): 5.1 µM | IC50 (HeLa cells [3]; Homo sapiens, HeLa, 168 h, sub-chronic (7 days) 0.1% DMF, read-out: Paclitaxel IC50): 13.9 µM | IC50 (HeLa cells [3]; Homo sapiens, HeLa, Sab shRNA#2 + Sab:shRNA^r (rescue), read-out: Paclitaxel IC50): 28 µM | IC50 (HeLa cells [3]; Homo sapiens, HeLa, ectopic expression of RFP, read-out: Paclitaxel IC50): 13.4 µM | IC50 (HeLa cells [3]; Homo sapiens, HeLa, ectopic expression of Sab, read-out: Paclitaxel IC50): 4.7 µM | IC50 (HeLa cells [3]; Homo sapiens, HeLa, ectopic expression of Sab: KIM1/2-L/A, read-out: Paclitaxel IC50): 13.8 µM | IC50 (HeLa cells [3]; Homo sapiens, HeLa, gene silencing, Sab shRNA#1, read-out: Paclitaxel IC50): 61.8 µM | IC50 (HeLa cells [3]; Homo sapiens, HeLa, gene silencing, Sab shRNA#2, read-out: Paclitaxel IC50): 73.4 µM | IC50 (HeLa cells [3]; Homo sapiens, HeLa, gene silencing, control shRNA, read-out: Paclitaxel IC50): 15.3 µM | IC50 (HeLa cells [3]; Homo sapiens, HeLa, untreated, read-out: Paclitaxel IC50): 14.7 µM
Structure (SMILES): CC(=O)O[C@H]1C(=O)[C@@]2(C)[C@H]([C@H](OC(=O)c3ccccc3)[C@]3(O)C[C@H](OC(=O)[C@H](O)[C@@H](NC(=O)c4ccccc4)c4ccccc4)C(C)=C1C3(C)C)[C@]1(OC(C)=O)CO[C@@H]1C[C@@H]2O [Paclitaxel]
Sensitivity to paclitaxel of SH3BP5 over-expressing cells compared to mock and D-AKAP1 over-expressing cells [4]: 2.5 times | Decrease in the IC50 of paclitaxel on increasing Sab expression (HeLa cells [3]; pLOC:Sab versus untreated, mock-transfected or RFP cells): 5 fold

Structure (SMILES): NCCc1cc(O)c(O)cc1O [6-OHDA, 6-hydroxydopamine]
Levels of SAB protein or RNA encoding SAB proteins in platelets and other blood cells (SAB [5]; 6-hydroxydopamine treated rats compared to control rats): higher | SAB levels in ventral midbrain (SAB [5]; rats stereotactically injected with 6-OHDA versus saline, six days post-injection): SAB levels increase; also recorded: elevated | SAB expression (Sab expression [6]): elevates SAB expression; also recorded: increased in a dose-dependent manner

Structure (SMILES): O=c1cc(N2CCOCC2)oc2c(-c3ccccc3)cccc12 [LY294002, 2-Morpholin-4-yl-8-phenylchromen-4-one]
Increase in phospho-JNK levels (JNK; 2 μM LY294002, between days 2 and 4): over 10 fold | JNK levels on mitochondria (JNK; 2 μM LY294002, between days 3 and 4): increased | HeLa cell viability (HeLa cells [7]; 2 μM LY294002, seven days): little impact | HeLa cell viability (HeLa cells [7]; 10 μM and 50 μM LY294002, seven days): lethal | 24-h IC10 for LY294002 (HeLa cells [7]; HeLa cells, 24 h): ~2 µM | Increase in Sab expression compared to DMF-treated and untreated cells (Sab expression [8]; 2 μM LY294002, 7 days): ~8 fold | SAB expression (in words) (Sab expression [8]; 2 μM LY294002 for seven days): pronounced increase; also recorded: significant increase; also recorded: increased SH3BP5 expression | Sab expression versus 0.1% DMF and untreated controls (Sab expression [8]; 2 μM, 10 μM and 50 μM LY294002 over 24 h): neither condition increased Sab expression

Source: patent publication US10078090B2, “SAB as a biomarker for degenerative diseases and therapeutic sensitivity in cancers” (The Florida International University Board of Trustees, priority 2014, dated 2018)
